# Active and inactive are the calls of the source.
# Tests used:
# [1] = alpha-synuclein stem-loop luciferase translation blockers – H4 neuroglioma cells, luminescence, confirmation (AID 1988); assay type: functional, cell-based
# [2] = luciferase reporter signal suppression in cells – H4 neuroglioma cells, luminescence, dose response (AID 1990); assay type: functional, cell-based
# [3] = Luminescence Cell-Based Dose Response HTS to Identify Inhibitors of 5'UTR Stem-Loop Driven Prion Protein mRNA Translation in H4 Neuroglioblastoma Cells. [Related pubchem assays: 1827 (Project Summary), 1813 (Primary HTS)]; assay type: functional
# [4] = IC50 of Artemis nuclease activity blockers – biochemical, fluorescence intensity, dose response (AID 720701); assay type: functional;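 note: Artemis endonuclease enzyme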
# [5] = IGROV1 cell killing – plate reader, dry powder samples, PAX8 inhibitor project, dose response (AID 743043); assay type: functional, cell-based; conditions: IGROV-1
# Paired box protein Pax-8 = Paired box protein Pax-8 (Homo sapiens, UniProt Q06710); test: PAX8 transcriptional activity inhibition in RMG-I – RMG-I cells, luciferase, cherry-pick, dose response (AID 687027); assay type: functional, cell-based;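 note: luciferase reporter driven by Pax8 target thyroperoxidase promoter measured by SteadyGlo luminescence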
# Sequence of Paired box protein Pax-8 (Q06710 whole entry): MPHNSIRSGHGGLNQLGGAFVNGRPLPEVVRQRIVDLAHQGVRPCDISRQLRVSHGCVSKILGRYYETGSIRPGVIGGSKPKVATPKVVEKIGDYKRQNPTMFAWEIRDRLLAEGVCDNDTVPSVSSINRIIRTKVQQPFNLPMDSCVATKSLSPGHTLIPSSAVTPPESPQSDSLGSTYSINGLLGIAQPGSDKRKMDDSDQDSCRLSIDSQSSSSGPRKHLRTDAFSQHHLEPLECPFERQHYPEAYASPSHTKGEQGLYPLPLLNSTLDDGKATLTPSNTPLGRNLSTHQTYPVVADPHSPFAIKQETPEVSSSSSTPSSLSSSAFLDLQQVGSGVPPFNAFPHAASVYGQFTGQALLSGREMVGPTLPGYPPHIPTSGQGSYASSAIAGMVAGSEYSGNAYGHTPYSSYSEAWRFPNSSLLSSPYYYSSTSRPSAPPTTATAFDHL
# [6] = OVCAR8 cell viability loss – plate reader, dry powder samples, PAX8 project, dose response (AID 743197); assay type: functional, cell-based; conditions: OVCAR-8
# [7] = toxicity toward immortalized ovarian surface epithelium – cell-based, plate reader, dry powder samples, cytotoxicity control for PAX8 inhibitor project, dose response (AID 743045); assay type: functional
# [8] = OVCAR-3 cell viability loss – plate reader, dry powder samples, PAX8 inhibitor project, dose response (AID 743044); assay type: functional, cell-based
# [9] = Shn3 3'UTR reporter signal decrease – cell-based, Clone20 osteoblasts, firefly luciferase, cherry-pick, set 2, Schnurri-3 inhibitor project, dose response (AID 720490); assay type: functional;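 note: actives lower the luminescence signal as inhibitors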
# [10] = non-specific 3'UTR reporter inhibition in Clone20-Shn3RL – cell-based, Renilla luciferase, cherry-picked, counter-screen for Shn3 inhibitor project, dose response (AID 624133); assay type: functional
# Protein RecA = target: T1, Protein RecA (Mycobacterium tuberculosis, UniProt P9WHJ3); test: Fluorescence Cell-Free Homogeneous Dose Retest to Identify Inhibitors of RecA-Intein Splicing Activity. [Related pubchem assays (depositor defined):AID2097, AID2223, AID489010, AID492950]; assay type: functional
# T1 sequence (P9WHJ3 whole entry): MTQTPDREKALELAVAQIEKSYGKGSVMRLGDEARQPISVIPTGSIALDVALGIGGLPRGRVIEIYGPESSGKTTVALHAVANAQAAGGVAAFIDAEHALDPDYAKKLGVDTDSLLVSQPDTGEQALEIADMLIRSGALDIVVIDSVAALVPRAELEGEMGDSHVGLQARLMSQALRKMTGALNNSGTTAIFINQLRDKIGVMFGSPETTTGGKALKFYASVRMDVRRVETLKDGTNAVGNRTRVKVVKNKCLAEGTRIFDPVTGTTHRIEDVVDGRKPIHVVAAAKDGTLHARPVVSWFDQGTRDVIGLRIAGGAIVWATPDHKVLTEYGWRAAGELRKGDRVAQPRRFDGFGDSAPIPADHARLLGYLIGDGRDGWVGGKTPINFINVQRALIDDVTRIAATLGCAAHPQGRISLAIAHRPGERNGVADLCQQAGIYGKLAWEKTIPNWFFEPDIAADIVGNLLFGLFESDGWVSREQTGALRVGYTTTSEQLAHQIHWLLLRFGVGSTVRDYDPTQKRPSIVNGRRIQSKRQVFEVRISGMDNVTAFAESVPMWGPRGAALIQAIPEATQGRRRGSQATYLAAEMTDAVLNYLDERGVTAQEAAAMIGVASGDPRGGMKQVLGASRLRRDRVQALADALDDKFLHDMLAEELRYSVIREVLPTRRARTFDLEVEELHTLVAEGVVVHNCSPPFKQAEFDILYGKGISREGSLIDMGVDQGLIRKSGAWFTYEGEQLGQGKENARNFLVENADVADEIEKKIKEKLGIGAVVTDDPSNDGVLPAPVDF
# [11] = loss of viability in HepG2 cells – cell-based, CellTiter-Glo, cherry-picked, cytotoxicity control for Shn3 inhibitor project, dose response (AID 624134); assay type: functional
# [12] = target: T2, Replicative DNA helicase DnaB (Mycobacterium tuberculosis, UniProt P9WMR3); test: DnaB intein splicing inhibitors, dose response, biochemical, cell-free fluorescence (AID 449749); assay type: functional
# T2 sequence (P9WMR3 whole entry): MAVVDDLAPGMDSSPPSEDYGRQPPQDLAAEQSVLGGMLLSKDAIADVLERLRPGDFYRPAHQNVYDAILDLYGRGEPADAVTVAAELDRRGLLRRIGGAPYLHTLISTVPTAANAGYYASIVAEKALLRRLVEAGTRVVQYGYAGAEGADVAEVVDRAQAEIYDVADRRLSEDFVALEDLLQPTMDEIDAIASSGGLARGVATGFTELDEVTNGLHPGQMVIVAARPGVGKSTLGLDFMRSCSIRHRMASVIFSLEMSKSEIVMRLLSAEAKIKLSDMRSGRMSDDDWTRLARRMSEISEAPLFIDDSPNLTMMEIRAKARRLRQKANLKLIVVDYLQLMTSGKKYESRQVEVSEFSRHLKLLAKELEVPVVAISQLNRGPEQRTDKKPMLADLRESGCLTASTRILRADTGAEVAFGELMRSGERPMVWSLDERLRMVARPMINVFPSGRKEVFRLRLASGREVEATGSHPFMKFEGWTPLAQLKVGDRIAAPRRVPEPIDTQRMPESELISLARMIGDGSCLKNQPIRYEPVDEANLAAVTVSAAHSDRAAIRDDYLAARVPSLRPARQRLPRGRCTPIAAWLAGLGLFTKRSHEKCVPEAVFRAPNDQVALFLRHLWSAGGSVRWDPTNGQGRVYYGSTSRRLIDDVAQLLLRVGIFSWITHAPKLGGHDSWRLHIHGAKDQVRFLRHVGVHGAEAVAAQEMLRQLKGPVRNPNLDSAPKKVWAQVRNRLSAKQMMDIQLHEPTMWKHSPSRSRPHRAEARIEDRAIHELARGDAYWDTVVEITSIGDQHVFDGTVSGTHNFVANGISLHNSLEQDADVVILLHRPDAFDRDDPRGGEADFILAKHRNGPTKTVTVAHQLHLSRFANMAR
# [13] = target: T3, Microphthalmia-associated transcription factor (Homo sapiens, UniProt O75030); test: reducers of TRPM1 reporter luminescence, concentration series – cell-based, SK-MEL-5, cherry-picked, set 3, MITF inhibitor project, dose response (AID 493073); assay type: functional;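 note: SK-MEL-5 melanoma cells with luciferase driven by the MITF target TRPM1 promoter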
# T3 sequence (O75030 whole entry): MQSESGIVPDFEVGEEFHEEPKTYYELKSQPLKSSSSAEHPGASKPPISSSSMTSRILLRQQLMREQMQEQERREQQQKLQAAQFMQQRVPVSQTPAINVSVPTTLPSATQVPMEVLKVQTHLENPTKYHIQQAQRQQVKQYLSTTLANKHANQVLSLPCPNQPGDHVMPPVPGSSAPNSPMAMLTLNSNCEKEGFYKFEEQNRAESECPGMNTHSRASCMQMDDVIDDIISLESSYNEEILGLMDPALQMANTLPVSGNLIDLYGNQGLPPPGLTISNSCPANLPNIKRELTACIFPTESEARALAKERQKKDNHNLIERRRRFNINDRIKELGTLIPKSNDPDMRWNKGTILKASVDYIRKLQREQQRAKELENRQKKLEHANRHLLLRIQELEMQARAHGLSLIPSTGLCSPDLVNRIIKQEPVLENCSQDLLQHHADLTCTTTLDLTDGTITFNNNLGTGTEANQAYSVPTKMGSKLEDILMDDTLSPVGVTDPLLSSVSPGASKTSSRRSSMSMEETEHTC
# [14] = Fluorescence-based cell-based high throughput dose response assay for inhibitors of the interaction of nucleotide-binding oligomerization domain containing 2 (NOD2) and the receptor-interacting serine-threonine kinase 2 (RIPK2).; assay type: functional; conditions: Homo sapiens
# Fatty acid synthase [15] = target: T4, Fatty acid synthase (Homo sapiens, UniProt P49327); test: inhibition of human FAS-TE enzyme activity – biochemical, kinetic fluorescence intensity, dose response (AID 624326); assay type: functional;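 note: rate of fluorescence rise from hydrolysis of a fluorogenic O-methyl fluorescein ester substrate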
# T4 sequence (P49327 whole entry): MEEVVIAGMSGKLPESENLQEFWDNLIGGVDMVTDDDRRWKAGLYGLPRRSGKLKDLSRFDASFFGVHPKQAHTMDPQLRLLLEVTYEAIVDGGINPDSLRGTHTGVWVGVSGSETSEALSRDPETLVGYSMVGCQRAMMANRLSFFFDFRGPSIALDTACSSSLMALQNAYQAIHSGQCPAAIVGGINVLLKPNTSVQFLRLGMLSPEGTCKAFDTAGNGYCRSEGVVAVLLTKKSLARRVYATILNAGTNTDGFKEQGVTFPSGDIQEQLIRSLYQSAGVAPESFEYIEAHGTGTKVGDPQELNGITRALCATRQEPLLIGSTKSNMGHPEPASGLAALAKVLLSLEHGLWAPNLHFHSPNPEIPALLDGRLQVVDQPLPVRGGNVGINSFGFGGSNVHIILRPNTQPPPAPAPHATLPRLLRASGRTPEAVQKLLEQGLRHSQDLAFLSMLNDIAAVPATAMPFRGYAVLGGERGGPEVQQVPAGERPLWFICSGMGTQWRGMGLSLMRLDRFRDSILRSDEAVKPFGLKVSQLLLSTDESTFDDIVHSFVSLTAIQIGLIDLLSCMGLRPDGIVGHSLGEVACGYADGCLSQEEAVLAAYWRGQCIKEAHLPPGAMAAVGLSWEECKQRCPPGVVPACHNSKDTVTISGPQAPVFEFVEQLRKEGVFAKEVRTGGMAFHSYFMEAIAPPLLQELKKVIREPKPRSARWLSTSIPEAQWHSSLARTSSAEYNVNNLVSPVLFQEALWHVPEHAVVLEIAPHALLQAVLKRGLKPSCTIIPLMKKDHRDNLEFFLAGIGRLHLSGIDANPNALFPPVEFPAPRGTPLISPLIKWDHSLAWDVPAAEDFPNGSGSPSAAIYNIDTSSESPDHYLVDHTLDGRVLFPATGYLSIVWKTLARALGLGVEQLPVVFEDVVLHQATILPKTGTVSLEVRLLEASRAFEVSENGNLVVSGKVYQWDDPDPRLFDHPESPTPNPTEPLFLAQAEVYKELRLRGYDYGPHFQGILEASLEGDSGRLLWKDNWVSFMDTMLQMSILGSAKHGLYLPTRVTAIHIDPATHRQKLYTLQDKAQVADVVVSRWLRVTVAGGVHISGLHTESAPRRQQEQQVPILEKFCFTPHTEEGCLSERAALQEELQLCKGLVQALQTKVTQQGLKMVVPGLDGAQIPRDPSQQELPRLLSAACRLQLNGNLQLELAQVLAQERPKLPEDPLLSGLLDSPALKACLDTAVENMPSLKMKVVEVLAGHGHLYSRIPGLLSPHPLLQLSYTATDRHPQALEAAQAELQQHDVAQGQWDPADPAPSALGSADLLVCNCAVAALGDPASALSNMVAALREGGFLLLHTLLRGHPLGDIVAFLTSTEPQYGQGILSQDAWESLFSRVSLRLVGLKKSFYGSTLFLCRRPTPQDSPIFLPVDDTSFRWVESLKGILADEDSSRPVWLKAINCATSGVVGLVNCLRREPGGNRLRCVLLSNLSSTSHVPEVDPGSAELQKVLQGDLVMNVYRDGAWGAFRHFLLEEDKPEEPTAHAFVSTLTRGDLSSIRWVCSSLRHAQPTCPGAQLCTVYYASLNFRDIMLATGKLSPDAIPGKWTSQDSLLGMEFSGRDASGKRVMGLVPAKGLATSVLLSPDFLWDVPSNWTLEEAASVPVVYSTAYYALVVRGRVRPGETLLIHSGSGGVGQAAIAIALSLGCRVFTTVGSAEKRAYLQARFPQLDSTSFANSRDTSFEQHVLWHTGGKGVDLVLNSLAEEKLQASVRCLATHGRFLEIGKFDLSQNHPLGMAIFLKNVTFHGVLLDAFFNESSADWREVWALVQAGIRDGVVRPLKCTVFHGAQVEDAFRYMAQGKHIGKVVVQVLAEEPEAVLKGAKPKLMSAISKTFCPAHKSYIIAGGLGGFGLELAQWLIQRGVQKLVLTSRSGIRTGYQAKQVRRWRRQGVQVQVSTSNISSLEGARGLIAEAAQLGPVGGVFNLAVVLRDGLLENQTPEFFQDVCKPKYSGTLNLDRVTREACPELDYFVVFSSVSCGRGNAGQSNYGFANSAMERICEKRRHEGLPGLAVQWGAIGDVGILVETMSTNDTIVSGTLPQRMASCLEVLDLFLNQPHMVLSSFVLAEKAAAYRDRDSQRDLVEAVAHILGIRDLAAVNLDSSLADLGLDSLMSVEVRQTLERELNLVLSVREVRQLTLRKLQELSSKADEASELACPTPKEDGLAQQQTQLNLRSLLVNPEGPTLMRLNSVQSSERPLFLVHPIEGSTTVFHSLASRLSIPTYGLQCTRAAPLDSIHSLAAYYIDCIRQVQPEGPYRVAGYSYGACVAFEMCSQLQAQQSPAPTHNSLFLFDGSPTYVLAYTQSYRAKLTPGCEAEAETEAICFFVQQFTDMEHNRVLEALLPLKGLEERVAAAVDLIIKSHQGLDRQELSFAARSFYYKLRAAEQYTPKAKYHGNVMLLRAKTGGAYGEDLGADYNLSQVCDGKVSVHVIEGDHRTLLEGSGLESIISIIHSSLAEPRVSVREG
# Beta Lactamase = Beta Lactamase (Pseudomonas aeruginosa, UniProt Q932Y6); test: BLA reporter interference, concentration series – BLA reporter cells, FRET fluorescence, artefact control for NOD2-RIPK2 interaction inhibitor project, dose response (AID 651552); assay type: functional, cell-based
# Sequence of Beta Lactamase (Q932Y6 whole entry): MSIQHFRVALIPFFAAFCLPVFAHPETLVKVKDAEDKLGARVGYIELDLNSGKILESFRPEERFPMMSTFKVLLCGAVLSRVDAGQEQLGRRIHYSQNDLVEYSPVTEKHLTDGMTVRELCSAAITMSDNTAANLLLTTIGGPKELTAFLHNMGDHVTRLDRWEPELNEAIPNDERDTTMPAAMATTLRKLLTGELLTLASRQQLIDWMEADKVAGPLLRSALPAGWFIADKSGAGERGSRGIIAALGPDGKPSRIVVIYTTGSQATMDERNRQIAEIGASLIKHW
# [16] = reduction of Shn3 3'UTR-driven luciferase in osteoblasts – cell-based, Clone20 osteoblasts, firefly luciferase, cherry-picked, dose response (AID 624132); assay type: functional;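 note: firefly luciferase luminescence from reporter carrying the Shn3 3'UTR in osteoblasts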
# Fatty acid synthase [17] = target: T4, Fatty acid synthase; test: inhibition of human FAS-TE enzyme activity – biochemical, endpoint fluorescence intensity, uHTS hits, dose response (AID 624327); assay type: functional;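 note: fluorescence from hydrolysis of an O-methyl fluorescein acyl ester substrate by the enzyme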
# [18] = Shn3 transcript knock-down in Clone20 cells – cell-based, qPCR, cherry-pick, dose response (AID 743415); assay type: functional
# Streptococcus = test: GAS UMAA2166 growth inhibition – luminescence, BacTiterGlo, counter-screen for streptokinase expression inhibitor project, dose response (AID 1915); assay type: functional, organism-based;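 note: potency for reduction of bacterial viability or growth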
# [19] = ATP-based viability loss in HeLa cells – cell-based, CellTiter-Glo luminescence, dry powder, set 2, cytotoxicity control, dose response (AID 720593); assay type: functional
# [20] = test system: Streptococcus sp. 'group A'; test: Streptococcus pyogenes SK(-)GAS viability under kanamycin – luminescence, BacTiterGlo, confirmation, counter-screen for streptokinase expression inhibitor project, dose response (AID 1900); assay type: functional, organism-based
# [21] = ATP-based viability loss in HEK293T cells – cell-based, CellTiter-Glo luminescence, dry powder, set 2, cytotoxicity control, dose response (AID 720595); assay type: functional; conditions: HEK293
# Nonstructural protein 1 = Nonstructural protein 1 (Influenza A virus, UniProt Q194T2); assay type: functional, Influenza A virus (A/California/07/2009(H1N1))
# Sequence of Nonstructural protein 1 (Q194T2 whole entry): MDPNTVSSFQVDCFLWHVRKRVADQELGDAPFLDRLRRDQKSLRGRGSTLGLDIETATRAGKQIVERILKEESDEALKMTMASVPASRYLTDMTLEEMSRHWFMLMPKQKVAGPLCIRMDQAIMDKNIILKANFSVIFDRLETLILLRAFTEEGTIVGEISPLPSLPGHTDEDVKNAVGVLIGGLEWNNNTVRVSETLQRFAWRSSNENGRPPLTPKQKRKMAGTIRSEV
# Streptokinase A = target: T5, Streptokinase A (Streptococcus pyogenes serotype M1, UniProt P10520); test: viability-normalized secreted streptokinase activity reduction – plasminogen activation absorbance, OD405, dose response (AID 1914); assay type: functional, Streptococcus pyogenes M1 GAS;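 note: secreted streptokinase activity via plasminogen activation per viability signal from cell pellet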
# T5 sequence (P10520 whole entry): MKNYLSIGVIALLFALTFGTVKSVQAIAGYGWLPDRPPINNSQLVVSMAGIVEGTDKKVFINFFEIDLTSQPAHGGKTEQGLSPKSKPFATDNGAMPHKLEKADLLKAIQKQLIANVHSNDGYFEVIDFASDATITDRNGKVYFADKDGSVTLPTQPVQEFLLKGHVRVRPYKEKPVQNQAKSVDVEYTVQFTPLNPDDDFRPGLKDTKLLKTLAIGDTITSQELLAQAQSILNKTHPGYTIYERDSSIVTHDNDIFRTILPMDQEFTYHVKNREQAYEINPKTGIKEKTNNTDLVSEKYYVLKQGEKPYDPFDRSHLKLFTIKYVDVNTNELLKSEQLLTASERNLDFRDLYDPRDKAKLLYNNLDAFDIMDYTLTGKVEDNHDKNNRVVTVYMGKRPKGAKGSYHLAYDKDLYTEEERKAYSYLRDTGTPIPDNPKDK
# [22] = viability loss in A549 lung cells – cell-based, 24 h, CellTiter-Glo luminescence, cherry-picks, cytotoxicity control, dose response (AID 1053115); assay type: functional; conditions: A549, 24 h
smiles,measurement,setting,value
CSc1nnc2c3cc(C)ccc3n(Cc3ccccc3)c2n1,EC50,[1],> 120 µM (not active)
same,EC50,[2],> 120 µM (not active)
same,EC50,[3],> 120 µM (not active)
same,IC50,[4],19.8 µM (active)
C[C@H]1CCCCO[C@H](CN(C)C(=O)Nc2ccc(C(F)(F)F)cc2)[C@@H](C)CN([C@@H](C)CO)C(=O)c2cc(NS(=O)(=O)c3ccc(Cl)cc3)ccc2O1,AC50,[5],47.6 µM (active)
same,AC50,Paired box protein Pax-8,4.68 µM (active)
same,AC50,[6],37.2 µM (active)
same,AC50,[7],51.5 µM (active)
same,AC50,[8],20.1 µM (active)
CC(C)[C@H](NC(=O)OC(C)(C)C)c1nnc(S(=O)(=O)Cc2c(F)cccc2Cl)o1,AC50,[9],3.07 µM (active)
same,AC50,[10],13.5 µM (active)
same,EC50,Protein RecA,9.61 µM (active)
same,AC50,[11],61.7 µM (active)
same,AC50,[12],4.9 µM (active)
same,AC50,[13],11.6 µM (active)
same,IC50,[14],1.97 µM (active)
same,IC50,Fatty acid synthase [15],1.61 µM (active)
same,IC50,Beta Lactamase,10.5 µM (inactive)
same,AC50,[16],1.08 µM (active)
same,IC50,Fatty acid synthase [17],3.02 µM (active)
same,AC50,[18],12 µM (active)
Cc1ccc(C(=O)Nc2nc(-c3ccccn3)cs2)o1,EC50,Streptococcus,> 150 µM (not active)
same,AC50,[19],> 52 µM (inactive)
same,EC50,[20],17.9 µM (active)
same,AC50,[21],29.1 µM (active)
same,IC50,Nonstructural protein 1,10.1 µM (active)
same,EC50,Streptokinase A,> 150 µM (not active)
O=C(Nc1ccc2c(c1)[C@@H]1C[C@@H](CC(=O)N3CCCCC3)O[C@@H](CO)[C@@H]1O2)Nc1ccccc1F,AC50,[22],47.8 µM (active)
